Results published in publication PMC11477717, “Synthesis of Carborane–Thiazole Conjugates as Tyrosinase and 11β-Hydroxysteroid Dehydrogenase Inhibitors: Antiproliferative Activity and Molecular Docking Studies” (Molecules, 2024).
Read-outs that look alike come from different tables or passages of the source.

Assays:
[1] = test system: A172 (human brain glioblastoma); assay: MTT antiproliferative assay, A172; assay type: cell-based; settings: for IC50: MTT, 72 h, A172 cells, read-out: IC50 ± SD A172; for SI HUVEC/A172: selectivity index = IC50 normal cell line / IC50 cancer cell line
Procedure: (§1) All cell lines were obtained from ATCC, and all chemicals were purchased from Sigma-Aldrich, St. Louis, MO, USA. […] All media were supplemented with antibiotic and antimycotic solutions, according to the manufacturers’ instructions. MTT cytotoxicity assessments were performed as described previously. […] The cells counted using an automated cell counter (Countess® II FL, Invitrogen by Thermo Fisher Scientific Inc., Waltham, MA, USA) were plated in 96-well plates (Nunc Edge 2F, Thermo Fisher Scientific Inc.) at a density of 0.1 × 10^4 per well. After an additional 72 h, cells underwent an MTT cytotoxicity assay (see below). The IC50 values were calculated using ED50plus v 1.0 freeware software (Instituto Nacional de Enfermedades Respiratorias, Mexico City, Mexico). Each cell line was tested in three independent replicates.
(§2) After the incubation time was complete, the medium was removed and crystals of formazan were solubilized in pure isopropanol. The absorbance readout was conducted immediately using a plate reader, Multiskan Spectrum, at 570 nm (Thermo Fisher Scientific Inc., Waltham, MA, USA). The background optical density was measured in the wells filled with the culture medium, without any cells.

[2] = test system: HUVEC (human umbilical vein endothelial cells); assay: MTT antiproliferative assay, HUVEC healthy control; assay type: cell-based; settings: 72 h, HUVEC normal cells, read-out: IC50 ± SD HUVEC
Procedure: All cell lines were obtained from ATCC, and all chemicals were purchased from Sigma-Aldrich, St. Louis, MO, USA. Briefly, cells were cultivated in a controlled atmosphere using DMEM medium with fetal bovine serum (FBS) at a final concentration of 10% (A-172), an L15 medium with 15% FBS, cultivated without CO2 (MDA-MB-231), F12K with a heparin final concentration of 0.1 mg/mL, endothelial cell growth supplement with a final concentration of 0.03 mg/mL (HUVEC), and RPMI with 5% FBS. All media were supplemented with antibiotic and antimycotic solutions, according to the manufacturers’ instructions. MTT cytotoxicity assessments were performed as described previously. Briefly, cell lines A172, B16F10, MDA-MB-231, and HUVEC were seeded 24 h prior to the addition of the tested compounds. The cells counted using an automated cell counter (Countess® II FL, Invitrogen by Thermo Fisher Scientific Inc., Waltham, MA, USA) were plated in 96-well plates (Nunc Edge 2F, Thermo Fisher Scientific Inc.) at a density of 0.1 × 10^4 per well. After an additional 72 h, cells underwent an MTT cytotoxicity assay (see below). The IC50 values were calculated using ED50plus v 1.0 freeware software (Instituto Nacional de Enfermedades Respiratorias, Mexico City, Mexico). Each cell line was tested in three independent replicates.
as §2, with “Twenty microliters of an MTT solution (MTT: 3-(4,5-dimethylthiazol-2-yl)-2,5-diphenyl tetrazolium bromide, stock solution: 5 mg/mL) was added to each cell line for 2 h (A172, B16F10, MDA-MB-231, and HUVEC). After” for “After”

[3] = test system: MDA-MB-231 (human breast adenocarcinoma); assay: MTT antiproliferative assay, MDA-MB-231; assay type: cell-based; settings: for IC50: MTT, 72 h, MDA-MB-231 cells, read-out: IC50 ± SD MDA-MB-231; for SI HUVEC/ MDA-MB-231: selectivity index = IC50 normal cell line / IC50 cancer cell line
Procedure: as §1, §2

[4] = molecular target: T1, mushroom tyrosinase (Agaricus bisporus, UniProt C7FF04); assay: Kinetic analysis of the inhibition of tyrosinase (Lineweaver-Burk); assay type: biochemical; settings: compound at 0.05 mM; for Mechanism of Inhibition: Lineweaver-Burk plots; for Vmax: L-DOPA 100-250 µM
T1 construct: purchased Sigma-Aldrich
T1 sequence (C7FF04 1-392 limits assumed): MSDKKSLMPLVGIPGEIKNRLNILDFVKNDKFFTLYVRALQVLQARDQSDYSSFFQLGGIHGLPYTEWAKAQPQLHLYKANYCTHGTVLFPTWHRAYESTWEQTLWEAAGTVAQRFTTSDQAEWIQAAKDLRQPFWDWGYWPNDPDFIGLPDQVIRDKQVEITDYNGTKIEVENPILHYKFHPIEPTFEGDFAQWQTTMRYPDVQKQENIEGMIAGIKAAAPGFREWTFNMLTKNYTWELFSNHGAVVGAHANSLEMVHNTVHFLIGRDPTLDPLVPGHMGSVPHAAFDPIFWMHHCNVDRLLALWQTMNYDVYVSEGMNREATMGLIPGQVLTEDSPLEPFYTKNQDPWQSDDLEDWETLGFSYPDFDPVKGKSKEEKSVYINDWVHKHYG
Procedure: A series of experiments were performed to determine the inhibition kinetics of compounds by following the already reported method. The inhibitor concentrations for compounds were 50 and 100 µM. The substrate L-DOPA concentration was between 100 and 250 µM in all kinetic studies. Maximal initial velocity was determined from the initial linear portion of absorbance up to ten minutes after the addition of the enzyme. The inhibition type of the enzyme, Michaelis constant (KM), and maximal velocity (Vmax) were determined by Lineweaver–Burk plots of the inverse of velocities (1/V) versus the inverse of substrate concentration 1/[L-DOPA] mM^−1.

[5] = test system: B16F10 (murine melanoma); assay: MTT antiproliferative assay, B16F10; assay type: cell-based; settings: for IC50: MTT, 72 h, B16F10 cells, read-out: IC50 ± SD B16F10; for SI HUVEC/ B16F10: selectivity index = IC50 normal cell line / IC50 cancer cell line
Procedure: as §1, §2

[6] = molecular target: T2, 11β-HSD2 (Homo sapiens, UniProt P80365); assay: Inhibition of 11β-HSD2 assay (cortisol to cortisone, microsomes, cortisol ELISA); assay type: biochemical; settings: inhibitor 10 µM, 150 min, 37 °C
T2 construct: Human kidney microsomes, mixed gender, 0.5 mL, 10 mg/mL, Lot No. 1710160, were obtained from XenoTech; tissue XenoTech Lot No. 1710160; host or cells: human kidney microsomes
T2 sequence (P80365 1-405): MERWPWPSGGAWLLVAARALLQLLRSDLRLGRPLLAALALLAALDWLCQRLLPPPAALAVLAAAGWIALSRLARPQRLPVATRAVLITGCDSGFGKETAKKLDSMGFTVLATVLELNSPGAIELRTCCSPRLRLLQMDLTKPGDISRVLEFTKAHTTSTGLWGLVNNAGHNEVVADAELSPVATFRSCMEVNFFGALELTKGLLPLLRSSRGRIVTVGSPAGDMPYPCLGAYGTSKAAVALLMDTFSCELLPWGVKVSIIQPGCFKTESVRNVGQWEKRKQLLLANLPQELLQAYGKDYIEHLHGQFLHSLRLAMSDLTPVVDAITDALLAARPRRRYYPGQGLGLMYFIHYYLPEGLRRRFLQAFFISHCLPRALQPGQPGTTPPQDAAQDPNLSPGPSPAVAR
Procedure: The Enzyme-Linked Immunosorbent Assay (ELISA) Kit for 11-Beta-Hydroxysteroid Dehydrogenase Type 1, Lot No. L160706125, was obtained from Cloud-Clone Corp. PBS, Lot No. H161008, was obtained from Pan Biotech. […] The Enzyme-Linked Immunosorbent Assay (ELISA) Kit for 11-Beta-Hydroxysteroid Dehydrogenase Type 2, Lot No. L191113457, was obtained from Cloud-Clone Corp.
The oxidation reaction of cortisol to cortisone was carried out on 96-well microtiter plates in the presence of the enzyme 11β-HSD2 in a total volume of 100 µL. To this end, 60 µL of phosphate buffer (pH 7.4), 10 µL of a microsomes(0.12 µg/mL […]) solution in PBS (final quantity 2.5 µg), 20 µL of substrate mixture cortisol/NAD (final concentration 200 nM/2 mM), and 10 µL of the appropriate inhibitor solution (solvent DMSO/water 1/99, final concentration 10 µM) were placed in each well. The microplates were incubated on an orbital shaker for 150 min at 37 °C. […] The quantity of unreacted cortisol was determined using a cortisol ELISA kit DiaMetra.

[7] = molecular target: T3, 11β-HSD1 (Homo sapiens, UniProt P28845); assay: Inhibition of 11β-HSD1 assay (cortisone to cortisol, microsomes, cortisol ELISA); assay type: biochemical
T3 construct: tissue XenoTech Lot No. 1410013; host or cells: pooled human liver microsomes
T3 sequence (P28845 whole entry): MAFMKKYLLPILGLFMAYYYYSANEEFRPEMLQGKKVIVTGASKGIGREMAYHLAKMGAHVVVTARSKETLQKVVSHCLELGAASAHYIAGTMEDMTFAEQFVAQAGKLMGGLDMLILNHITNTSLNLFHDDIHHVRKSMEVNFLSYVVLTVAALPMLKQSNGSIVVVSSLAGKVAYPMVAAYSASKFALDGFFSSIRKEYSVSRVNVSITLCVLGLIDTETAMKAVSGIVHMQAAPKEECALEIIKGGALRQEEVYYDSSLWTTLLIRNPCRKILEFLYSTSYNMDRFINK
Procedure: L160706125, was obtained from Cloud-Clone Corp. PBS, Lot No. H161008, was obtained from Pan Biotech. […] L191113457, was obtained from Cloud-Clone Corp. […] The microplates were incubated on an orbital shaker for 150 min at 37 °C. […] The quantity of cortisol formed from cortisone was determined using a cortisol ELISA kit, […].

[8] = molecular target: T1, mushroom tyrosinase; assay: Mushroom tyrosinase inhibition assay (L-DOPA, dopachrome 475 nm); assay type: biochemical
Procedure: The mushroom tyrosinase (Sigma-Aldrich) inhibition was performed following previously reported methods. […] The inhibitor solutions were prepared in DMSO with an initial concentration of 1 mM. Different aliquots were added to the solution containing the buffer, L-DOPA, and EDTA, with the enzyme being added last. […] Ascorbic acid was used as a reference inhibitor with an initial concentration of 1 mM. The IC50 values were calculated from the equation generated via exponential fit of the experimental data.

[9] = inhibitor 10 µM, 150 min, 37 °C
[10] = L-DOPA 0.17 mM, pH 6.8, room temperature, read-out: IC50 ± SD mushroom tyrosinase

4-(2-(2-(1,2-Dicarba-closo-Dodecaboranylmethylene)Hydrazinyl)Thiazol-4-yl)Benzonitrile [4h]
IC50 [1]: 7.72 ± 1.25 µM
SI HUVEC/A172 [1]: 0.80
IC50 [2]: 6.17 ± 0.35 µM
IC50 [3]: 6.64 ± 0.81 µM
SI HUVEC/ MDA-MB-231 [3]: 0.93
Mechanism of Inhibition [4]: Mixed
Vmax [4]: 0.1258 mM/min
IC50 [5]: 5.56 ± 0.3 µM
SI HUVEC/ B16F10 [5]: 1.11

O=C(O)CCCc1ccc(N(CCCl)CCCl)cc1 [chlorambucil, reference compound]
IC50 ([1]; Homo sapiens, A 172): > 10 µM
IC50 ([2]; Homo sapiens): 7.43 ± 0.54 µM
IC50 ([3]; Homo sapiens): > 10 µM
IC50 ([5]; Mus musculus, B16-F10): 5.44 ± 0.19 µM
SI HUVEC/ B16F10 [5]: 1.37

4-(4-Bromophenyl)-2-(2-(1,2-Dicarba-closo-Dodecaboranylmethylene)Hydrazinyl)Thiazole [4b]
IC50 [1]: 6.15 ± 0.26 µM
SI HUVEC/A172 [1]: 1.21
% of 11β-HSD2 Inhibition 10 μM [6]: 27.36%
IC50 ([7]; 5 inhibitor concentrations, three independent determinations, read-out: IC50 ± SD 11β-HSD1): 6.9 ± 1.2 µM
% of 11β-HSD1 Inhibition 10 μM [7, 9]: 64.44%
IC50 [2]: 7.46 ± 0.13 µM
IC50 [3]: 6.56 ± 0.12 µM
SI HUVEC/ MDA-MB-231 [3]: 1.14
Mechanism of Inhibition [4]: Activator
Vmax [4]: 0.0912 mM/min
IC50 [5]: 5.37 ± 0.11 µM
SI HUVEC/ B16F10 [5]: 1.39
IC50 [8, 10]: 0.145 ± 0.0144 mM

4-(Adamant-1-yl)-2-(2-(1,2-Dicarba-closo-Dodecaboranylmethylene)Hydrazinyl)Thiazole [4k]
IC50 [1]: > 10 µM
IC50 [2]: 5.86 ± 0.34 µM
IC50 [3]: > 10 µM
Mechanism of Inhibition [4]: Mixed
Vmax [4]: 0.7863 mM/min
IC50 [5]: > 10 µM
IC50 [8, 10]: 0.134 ± 0.00584 mM
IC50 ([8]; rounded values in SAR summary, unit mM, read-out: IC50 tyrosinase inhibition): 0.134 mM

CC1(C)[C@@H](OC(=O)CCC(=O)O)CC[C@]2(C)[C@H]3C(=O)C=C4[C@@H]5C[C@@](C)(C(=O)O)CC[C@]5(C)CC[C@@]4(C)[C@]3(C)CC[C@@H]12 [Carbenoxolone, carbenoxolone, reference compound]
inhibition at 10 µM [7, 9]: 88.9%
